Test results published in PubChem BioAssay (NCI).
Values joined by “and” are separate entries in the source; they are usually repeats but may differ in a detail not shown here. Identical values can stand only once.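 Following 48 hours of exposure in 96-well plates, responses at five concentrations were used to interpolate endpoints linearly. GI50 is the concentration that inhibits growth by half. The concentration for full growth arrest is given as TGI.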

Experiments:
Test in all cases: inhibition of tumour cell growth, NCI panel, 48 h
SF-539 CNS = test system: SF-539 CNS
NCI-H23 lung = test system: NCI-H23 lung
SNB-75 CNS = test system: SNB-75 CNS
HOP-92 NSCLC = test system: HOP-92 NSCLC
NCI-H522 lung = test system: NCI-H522 lung
U251 CNS = test system: U251 CNS
SK-MEL-5 melanoma = test system: SK-MEL-5 melanoma
PC-3 prostate = test system: PC-3 prostate
BT-549 breast = test system: BT-549 breast
HS 578T breast = test system: HS 578T breast

CC(C)(CN1C(=O)C(Cl)=C(Cl)C1=O)CN1C(=O)C(Cl)=C(Cl)C1=O
TGI (SF-539 CNS): 38.8 µM | TGI (NCI-H23 lung): 21 µM | TGI (SNB-75 CNS): 50.7 µM | TGI (HOP-92 NSCLC): 18.1 µM | TGI (NCI-H522 lung): 4.91 µM | TGI (U251 CNS): 38.7 µM | TGI (SK-MEL-5 melanoma): 51.6 µM

COc1ccc2nc3cc(Cl)ccc3c(NCCCNCCO)c2c1
GI50 (SF-539 CNS): 0.508 µM | TGI (SF-539 CNS): 2.35 µM | GI50 (PC-3 prostate): 0.544 µM | TGI (PC-3 prostate): 2.54 µM | GI50 (BT-549 breast): 1.89 µM | TGI (BT-549 breast): 3.71 µM | GI50 (NCI-H23 lung): 0.499 µM | TGI (NCI-H23 lung): 2.48 µM | GI50 (SNB-75 CNS): 0.744 µM | TGI (SNB-75 CNS): 2.26 µM | GI50 (HOP-92 NSCLC): 1.2 µM | TGI (HOP-92 NSCLC): 3.45 µM | GI50 (NCI-H522 lung): 0.379 µM | TGI (NCI-H522 lung): 1.63 µM | GI50 (HS 578T breast): 1.48 µM | TGI (HS 578T breast): 5.62 µM | GI50 (U251 CNS): 0.455 µM | TGI (U251 CNS): 2.12 µM | GI50 (SK-MEL-5 melanoma): 1.55 µM | TGI (SK-MEL-5 melanoma): 2.93 µM

COc1cnc2c(c1)C(=O)c1c-2n(CCCNC2=NCCS2)c(=O)c2cc(F)ccc12
GI50 (SF-539 CNS): 0.305 µM | TGI (SF-539 CNS): 1.09 µM | GI50 (PC-3 prostate): 0.208 µM | TGI (PC-3 prostate): 18.7 µM | GI50 (BT-549 breast): 1.08 µM | TGI (BT-549 breast): 17.5 µM | GI50 (NCI-H23 lung): 0.22 µM | TGI (NCI-H23 lung): 1.66 µM | GI50 (SNB-75 CNS): 0.358 µM | TGI (SNB-75 CNS): 18.9 µM | GI50 (HOP-92 NSCLC): 0.563 µM | TGI (HOP-92 NSCLC): 19.7 µM | GI50 (NCI-H522 lung): 0.0381 µM | TGI (NCI-H522 lung): 1.28 µM | GI50 (HS 578T breast): 12 µM | TGI (HS 578T breast): 32.4 µM | GI50 (U251 CNS): 0.0442 µM | TGI (U251 CNS): 1.35 µM | GI50 (SK-MEL-5 melanoma): 0.342 µM | TGI (SK-MEL-5 melanoma): 1.44 µM

COc1cc(C2c3cc4c(cc3[C@@H](NCCN(C)C)C3COC(=O)[C@H]23)OCO4)cc(OC)c1O (some centres undefined)
TGI (SF-539 CNS): 0.207 µM and 0.974 µM | GI50 (NCI-H23 lung): 0.103 µM and 0.228 µM | TGI (NCI-H23 lung): 0.673 µM and 1.41 µM | TGI (SNB-75 CNS): 0.674 µM | TGI (HOP-92 NSCLC): 0.0928 µM and 0.335 µM | TGI (NCI-H522 lung): 1.76 µM and 2.2 µM | TGI (U251 CNS): 0.365 µM and 1.33 µM | TGI (SK-MEL-5 melanoma): 1.09 µM and 1.55 µM

CC(C)(C)c1cc(C(=O)Nc2ccccc2C(=O)NCCN)cc(C(C)(C)C)c1
GI50 (SF-539 CNS): 1.89 µM | TGI (SF-539 CNS): 3.5 µM | GI50 (PC-3 prostate): 1.79 µM | TGI (PC-3 prostate): 3.5 µM | GI50 (BT-549 breast): 2.33 µM | TGI (BT-549 breast): 5.84 µM | GI50 (NCI-H23 lung): 1.94 µM | TGI (NCI-H23 lung): 3.89 µM | GI50 (SNB-75 CNS): 1.68 µM | TGI (SNB-75 CNS): 5.08 µM | GI50 (NCI-H522 lung): 1.85 µM | TGI (NCI-H522 lung): 3.82 µM | GI50 (HS 578T breast): 2.07 µM | TGI (HS 578T breast): 4.63 µM | GI50 (U251 CNS): 1.89 µM | TGI (U251 CNS): 3.42 µM | GI50 (SK-MEL-5 melanoma): 1.82 µM | TGI (SK-MEL-5 melanoma): 3.27 µM

C=C1C[C@H]2C=Nc3cc(OCCCOc4cc5c(cc4OC)C(=O)N4CC(=C)C[C@H]4C=N5)c(OC)cc3C(=O)N2C1
GI50 (SF-539 CNS): 0.00459 µM | TGI (SF-539 CNS): 0.0117 µM and 0.0286 µM | GI50 (PC-3 prostate): 0.0212 µM and < 0.0138 µM | TGI (PC-3 prostate): 3.13 µM | GI50 (BT-549 breast): 0.0126 µM | TGI (NCI-H23 lung): 0.0158 µM | GI50 (SNB-75 CNS): 0.00178 µM | TGI (SNB-75 CNS): 0.0145 µM and < 0.0155 µM | TGI (HOP-92 NSCLC): 0.151 µM | TGI (NCI-H522 lung): 0.0309 µM | TGI (HS 578T breast): > 100 µM | TGI (U251 CNS): 3.3 µM

CCCCC1=CSC(c2ccccc2)=C(c2ccccc2)S1
TGI (SF-539 CNS): > 100 µM | TGI (NCI-H23 lung): > 100 µM | TGI (SNB-75 CNS): > 100 µM | TGI (HOP-92 NSCLC): 60.9 µM | TGI (U251 CNS): > 100 µM | TGI (SK-MEL-5 melanoma): > 100 µM

COc1cc(/C=C/C(=O)c2cccc(-n3cc(-c4cc(OC)c(OC)c(OC)c4)[nH]c3=O)c2)cc(OC)c1OC
GI50 (SF-539 CNS): 3.12 µM | TGI (SF-539 CNS): 18 µM | GI50 (PC-3 prostate): 2.63 µM | TGI (PC-3 prostate): 18.6 µM | GI50 (BT-549 breast): 1.52 µM | TGI (BT-549 breast): 3.43 µM | GI50 (NCI-H23 lung): 2 µM | TGI (NCI-H23 lung): 4.68 µM | GI50 (SNB-75 CNS): 5.13 µM | TGI (SNB-75 CNS): 21 µM | GI50 (NCI-H522 lung): 1.05 µM | TGI (NCI-H522 lung): 2.53 µM | GI50 (HS 578T breast): > 100 µM | TGI (HS 578T breast): > 100 µM | GI50 (U251 CNS): 1.23 µM | TGI (U251 CNS): 3.71 µM | GI50 (SK-MEL-5 melanoma): 2.76 µM | TGI (SK-MEL-5 melanoma): 9.57 µM

COc1cc([N+](=O)[O-])c(OC)cc1-c1nc2sc(C)c(C)n2c1/C(N)=N/C(=N)N
GI50 (PC-3 prostate): > 100 µM | TGI (PC-3 prostate): > 100 µM | GI50 (BT-549 breast): > 100 µM | TGI (BT-549 breast): > 100 µM | GI50 (NCI-H23 lung): > 100 µM | TGI (NCI-H23 lung): > 100 µM | GI50 (SNB-75 CNS): > 100 µM | TGI (SNB-75 CNS): > 100 µM | GI50 (HOP-92 NSCLC): 51.6 µM | TGI (HOP-92 NSCLC): > 100 µM | GI50 (NCI-H522 lung): > 100 µM | TGI (NCI-H522 lung): > 100 µM | GI50 (U251 CNS): 2.29 µM | TGI (U251 CNS): > 100 µM | GI50 (SK-MEL-5 melanoma): 8.14 µM | TGI (SK-MEL-5 melanoma): > 100 µM

Cc1ccc(NC(=O)CCc2nc(=S)[nH][nH]2)cc1
TGI (SF-539 CNS): > 100 µM | TGI (NCI-H23 lung): > 100 µM | TGI (SNB-75 CNS): > 100 µM | TGI (HOP-92 NSCLC): > 100 µM | TGI (NCI-H522 lung): > 100 µM | TGI (U251 CNS): > 100 µM | TGI (SK-MEL-5 melanoma): > 100 µM

CSC1=NC(=Nc2c(C)cccc2C)C2(CCC(C(C)(C)C)CC2)N1c1ccc(Cl)cc1 (centres undefined)
GI50 (SF-539 CNS): 71.7 µM | TGI (SF-539 CNS): > 100 µM | GI50 (PC-3 prostate): 6.05 µM | TGI (PC-3 prostate): > 100 µM | GI50 (BT-549 breast): 54.1 µM | TGI (BT-549 breast): > 100 µM | GI50 (NCI-H23 lung): 24.7 µM | TGI (NCI-H23 lung): > 100 µM | GI50 (SNB-75 CNS): > 100 µM | TGI (SNB-75 CNS): > 100 µM | GI50 (HOP-92 NSCLC): 67.8 µM | TGI (HOP-92 NSCLC): > 100 µM | GI50 (HS 578T breast): 95.8 µM | TGI (HS 578T breast): > 100 µM | GI50 (U251 CNS): 8.04 µM | TGI (U251 CNS): > 100 µM | GI50 (SK-MEL-5 melanoma): 9.32 µM | TGI (SK-MEL-5 melanoma): > 100 µM

CN=c1ss/c(=N\C(=S)N(C)C)n1C
TGI (SF-539 CNS): > 100 µM | TGI (NCI-H23 lung): > 100 µM | TGI (SNB-75 CNS): > 100 µM | TGI (HOP-92 NSCLC): > 100 µM | TGI (U251 CNS): > 100 µM | TGI (SK-MEL-5 melanoma): > 100 µM

COc1ccc(-c2cc(=O)c3c(O)c(OC)c(OC)c(OC)c3o2)cc1OC
TGI (SF-539 CNS): > 100 µM | TGI (PC-3 prostate): > 100 µM | TGI (BT-549 breast): > 100 µM | TGI (NCI-H23 lung): > 100 µM | TGI (HOP-92 NSCLC): 28 µM | TGI (NCI-H522 lung): 43.9 µM | TGI (HS 578T breast): 81.8 µM | TGI (U251 CNS): > 100 µM | TGI (SK-MEL-5 melanoma): > 100 µM

CCN1CCN(c2nc(C)cc(N(CCCNc3ccnc4cc(Cl)ccc34)Cc3ccc4c(c3)OCO4)n2)CC1
GI50 (SF-539 CNS): 1.63 µM | TGI (SF-539 CNS): 3.07 µM | GI50 (PC-3 prostate): 2.43 µM | TGI (PC-3 prostate): 11 µM | GI50 (BT-549 breast): 1.78 µM | TGI (BT-549 breast): 3.7 µM | GI50 (NCI-H23 lung): 2.61 µM | TGI (NCI-H23 lung): 10.1 µM | GI50 (SNB-75 CNS): 1.48 µM | TGI (SNB-75 CNS): 3.1 µM | GI50 (HOP-92 NSCLC): 1.15 µM | TGI (HOP-92 NSCLC): 3.1 µM | GI50 (NCI-H522 lung): 1.66 µM | TGI (NCI-H522 lung): 3.39 µM | GI50 (U251 CNS): 1.56 µM | TGI (U251 CNS): 3.17 µM | GI50 (SK-MEL-5 melanoma): 1.66 µM | TGI (SK-MEL-5 melanoma): 3.05 µM

COc1cc[c]([Sn]([c]2ccc(OC)cc2)([c]2ccc(OC)cc2)[c]2ccc(OC)cc2)cc1
GI50 (SF-539 CNS): 16.8 µM | TGI (SF-539 CNS): 48.6 µM | GI50 (NCI-H23 lung): 23.3 µM | TGI (NCI-H23 lung): > 100 µM | GI50 (SNB-75 CNS): 24 µM | TGI (SNB-75 CNS): > 100 µM | GI50 (HOP-92 NSCLC): 4.2 µM | TGI (HOP-92 NSCLC): 22.8 µM | GI50 (U251 CNS): 20.8 µM | TGI (U251 CNS): 72.2 µM | GI50 (SK-MEL-5 melanoma): 12.7 µM | TGI (SK-MEL-5 melanoma): 28.5 µM

Nc1nnc2c(-c3ccccc3)[nH]nc2n1
TGI (SF-539 CNS): > 100 µM | TGI (NCI-H23 lung): > 100 µM | TGI (HOP-92 NSCLC): 63.6 µM | TGI (NCI-H522 lung): > 100 µM

COC1C2C[C@@H](O)CCC2C(C(=O)OCCl)C[C@H]1O (some centres undefined)
TGI (SF-539 CNS): > 100 µM | TGI (SNB-75 CNS): > 100 µM | TGI (NCI-H522 lung): > 100 µM | TGI (U251 CNS): > 100 µM | TGI (SK-MEL-5 melanoma): > 100 µM
